Assay results: patent US20250066351A1, “PYRAZOLO[1,5-A]PYRIDIN-2,3-YL AMIDES AS KV7 CHANNEL ACTIVATORS” (Biohaven Therapeutics Ltd., priority 2022, published 2025)

Molecular target: T1, hKv7.2/7.3 (Homo sapiens, UniProt O43525+O43526)
T1 construct: host or cells: HEK cells, tetracycline-inducible expression
Test: Kv7.2/7.3 Activation Assay, QPatch planar patch-clamp single concentration screen
Type: cell-based
Settings: increase in current over baseline, Kv7.2/Kv7.3 co-expressing HEK cells, compound concentration 3 μM, steady-state current at end of 2 s pulse to −30 mV
Procedure, shortened: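 Tetracycline-induced HEK cells expressing hKv7.2/7.3, recorded 24 h post-induction by automated whole-cell patch clamp (−80 mV hold, 2 s step to −30 mV). Compound tested at 3 μM (0.1% DMSO); fold increase in steady-state current at end of the −30 mV step over baseline.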

QPatch Kv7.2/7.3 Activity	SMILES
− (<1.2-fold (−))	CC(C)(O)CC(=O)NNc1nn2ccc(C(F)(F)F)cc2c1-c1ccc(F)cc1 [Example 85, N′-(3-(4-fluorophenyl)-5-(trifluoromethyl)pyrazolo [1,5-a]pyridin-2-yl)-3-hydroxy-3-methylbutanehydrazide]
+/− (1.2-1.99-fold (+/−))	CC(C)(C)CC(=O)Nc1nn2ccc(C(F)(F)F)cc2c1C(C)(C)O [Example 86, N-(3-(2-hydroxypropan-2-yl)-5-(trifluoromethyl)pyrazolo[1,5-a]pyridin-2-yl)-3,3-dimethylbutanamide]
+ (2.0-3.99 (+))	C[C@@](O)(CC(=O)Nc1nn2ccc(C(F)(F)F)cc2c1C1CCC1)C1CC1 [Example 87, (R)-N-(3-cyclobutyl-5-(trifluoromethyl)pyrazolo[1,5-a]pyridin-2-yl)-3-cyclopropyl-3-hydroxybutanamide]
+ (2.0-3.99 (+))	CC(C)(O)c1ccn2nc(NC(=O)C[C@H]3CC(F)(F)C3(F)F)c(C3CCC3)c2c1 [Example 95, (S)-N-(3-cyclobutyl-5-(2-hydroxypropan-2-yl)pyrazolo [1,5-a]pyridin-2-yl)-2-(2,2,3,3-tetrafluorocyclobutyl) acetamide]

The next lines start with the molecule.

SMILES	QPatch Kv7.2/7.3 Activity
CC(C)(C)CC(=O)Nc1nn2ccc(C#N)cc2c1C1CCC1 [Example 3, N-(5-cyano-3-cyclobutylpyrazolo[1,5-a]pyridin-2-yl)-3,3-dimethylbutanamide]	+ (2.0-3.99 (+))
CC(C)(O)CC(=O)Nc1nn2ccc(C(F)(F)F)cc2c1-c1ccc(F)cc1 [Example 14, N-(3-(4-fluorophenyl)-5-(trifluoromethyl)pyrazolo [1,5-a]pyridin-2-yl)-3-hydroxy-3-methylbutanamide]	+ (2.0-3.99 (+))
CC(C)(C)CC(=O)Nc1nn2ccc(C(C)(C)O)cc2c1C1CCC1 [Example 57, N-(3-cyclobutyl-5-(2-hydroxypropan-2-yl)pyrazolo[1,5-a]pyridin-2-yl)-3,3-dimethylbutanamide]	++ (4.0-5.99 (++))
CCC(O)(CC)CC(=O)Nc1nn2ccc(C(F)(F)F)cc2c1-c1ccc(F)cc1 [Example 77, 3-ethyl-N-(3-(4-fluorophenyl)-5-(trifluoromethyl)pyrazolo [1,5-a]pyridin-2-yl)-3-hydroxypentanamide]	+ (2.0-3.99 (+))
C[C@](O)(CC(=O)Nc1nn2c(C(F)(F)F)cccc2c1-c1ccc(F)cc1)c1ccccc1 [Example 78, (S)-N-(3-(4-fluorophenyl)-7-(trifluoromethyl)pyrazolo [1,5-a]pyridin-2-yl)-3-hydroxy-3-phenylbutanamide]	+ (2.0-3.99 (+))
CC(C)(C)CC(=O)Nc1nn2ccc(C(C)(C)O)cc2c1-c1ccc(F)cc1 [Example 79, N-(3-(4-fluorophenyl)-5-(2-hydroxypropan-2-yl)pyrazolo[1,5-a]pyridin-2-yl)-3,3-dimethylbutanamide]	++ (4.0-5.99 (++))
CC(C)(C)CC(=O)Nc1nn2ccc(C(F)(F)F)cc2c1C#N [Example 80, N-(3-cyano-5-(trifluoromethyl)pyrazolo [1,5-a]pyridin-2-yl)-3,3-dimethylbutanamide]	− (<1.2-fold (−))
CC(C)(C)CC(=O)Nc1nn2c(Cl)cc(Cl)cc2c1-c1ccc(F)cc1 [Example 81, N-(5,7-dichloro-3-(4-fluorophenyl)pyrazolo [1,5-a]pyridin-2-yl)-3,3-dimethylbutanamide]	++ (4.0-5.99 (++))
CC(C)(C)CC(=O)Nc1nn2ccc(Cl)cc2c1-c1ccc(F)cc1 [Example 82, N-(5-chloro-3-(4-fluorophenyl)pyrazolo [1,5-a]pyridin-2-yl)-3,3-dimethylbutanamide]	+++ (>6-fold (+++))
O=C(CC(O)(CF)CF)Nc1nn2ccc(C(F)(F)F)cc2c1C1CCC1 [Example 83, N-(3-cyclobutyl-5-(trifluoromethyl)pyrazolo[1,5-a]pyridin-2-yl)-4-fluoro-3-(fluoromethyl)-3-hydroxybutanamide]	+ (2.0-3.99 (+))
CC(C)(C)CC(=O)NNc1nn2ccc(C(F)(F)F)cc2c1-c1ccc(F)cc1 [Example 84, N′-(3-(4-fluorophenyl)-5-(trifluoromethyl)pyrazolo [1,5-a]pyridin-2-yl)-3,3-dimethylbutanehydrazide]	+/− (1.2-1.99-fold (+/−))

Molecular target: T1, hKv7.2/7.3
Test: Kv7.2/7.3 Thallium Flux Assay
Type: cell-based
Parameters: key to Thallium Flux Kv7.2/7.3 Activity: 3-10 μM (*); 1-3 μM (**); <1 μM (***); NC stands for Not Calculable
Settings: EC50 of Kv7.2/Kv7.3 activation, responses normalized to retigabine 30 μM
Source text: The Thallium Flux Assay is used as a surrogate indicator of potassium channel activity.
The experimental protocol was adapted from the FluxOR™ II Green Potassium Ion Channel Assay User Guide (Pub. No. MAN0016084, Invitrogen). Conditions were optimized for the Kv7.2/7.3 cell line.
Cell Line: The hKv7.2/7.3 cell line was obtained from Chantest (Cleveland, OH 44128) cat. #CT6147.
Cell Culture: Kv7.2/7.3 cells were maintained in a media containing DMEM/F12; 50/50 (GIBCO cat. #11330), 10% Fetal Bovine Serum (FBS) (GIBCO cat. #26140), 100 units/mL Penicillin-Streptomycin (GIBCO cat. #15140), 0.005 mg/ml Blasticidin (SIGMA 15205), 0.5 mg/mL Geneticin (GIBCO cat. #10131), and 0.1 mg/mL Zeocin (GIBCO cat. #R25001). One day prior to experimentation, cells were plated in 96 well clear bottom plates (Corning cat. #353219) in a media without Blasticidin, Geneticin, or Zeocin. Channel expression was induced by adding tetracycline (Bioline cat. #BIO87030) at a final concentration of 10 ng/mL.
Compound Plates: The test compound is diluted in a mixture of 0.1% DMSO/extracellular solution with an eight-point concentration range from 0.014 μM to 30 μM. Serial dilutions were made on a Biomek NXP (BECKMAN COULTER).
Measurement and data analysis: A plate reader (Enspire, Perkin Elmer) is used to characterize the ion-channel modulating properties of novel compounds using an excitation wavelength of 475 nm and an emission wavelength of 530 nm. After a 15 sec baseline measurement, the stimulus buffer containing thallium and potassium is injected. A final endpoint measure is taken after 90 sec. Responses are normalized to positive control (retigabine, 30 μM max). Mean normalized responses at each concentration tested are fit to the standard Hill equation to generate an EC50 and maximal response.

EC50 [nM]	Thallium Flux Kv7.2/7.3 Activity	SMILES
	NC	CC(C)(C)CC(=O)Nc1nn2ccc(C#N)cc2c1C(C)(C)C [Example 88, N-(3-(tert-butyl)-5-cyanopyrazolo[1,5-a]pyridin-2-yl)-3,3-dimethylbutanamide]
	NC	CC(C)(C)c1c(NC(=O)CC(C)(C)C(F)(F)F)nn2ccc(C#N)cc12 [Example 89, N-(3-(tert-butyl)-5-cyanopyrazolo[1,5-a]pyridin-2-yl)-4,4,4-trifluoro-3,3-dimethylbutanamide]
	NC	CC(C)(C)c1c(NC(=O)C[C@@H]2CC(F)(F)C2(F)F)nn2ccc(C#N)cc12 [Example 90, (R)-N-(3-(tert-butyl)-5-cyanopyrazolo[1,5-a]pyridin-2-yl)-2-(2,2,3,3-tetrafluorocyclobutyl) acetamide]
	NC	CC(C)(C)CC(=O)Nc1nn2ccccc2c1C#N [Example 91, N-(3-cyanopyrazolo [1,5-a]pyridin-2-yl)-3,3-dimethylbutanamide]
	NC	CCOC(=O)c1c(NC(=O)CC(C)(C)C)nn2ccccc12 [Example 92, ethyl 2-(3,3-dimethylbutanamido) pyrazolo[1,5-a]pyridine-3-carboxylate]
< 1000		CC(C)(C)CC(=O)Nc1nn2ccccc2c1C(C)(C)O [Example 93, N-(3-(2-hydroxypropan-2-yl)pyrazolo[1,5-a]pyridin-2-yl)-3,3-dimethylbutanamide]
< 1000		N#Cc1ccn2nc(NC(=O)C[C@H]3CC(F)(F)C3(F)F)c(C3CCC3)c2c1 [Example 94, (S)-N-(5-cyano-3-cyclobutylpyrazolo[1,5-a]pyridin-2-yl)-2-(2,2,3,3-tetrafluorocyclobutyl) acetamide]
< 1000		CC(C)(O)c1ccn2nc(NC(=O)C[C@H]3CC(F)(F)C3(F)F)c(C3CCC3)c2c1 [Example 95, (S)-N-(3-cyclobutyl-5-(2-hydroxypropan-2-yl)pyrazolo [1,5-a]pyridin-2-yl)-2-(2,2,3,3-tetrafluorocyclobutyl) acetamide]
	NC	N#Cc1ccn2nc(NC(=O)C[C@@H]3CC(F)(F)C3(F)F)c(C3CCC3)c2c1 [Example 96, (R)-N-(5-cyano-3-cyclobutylpyrazolo[1,5-a]pyridin-2-yl)-2-(2,2,3,3-tetrafluorocyclobutyl) acetamide]
	NC	N#Cc1ccn2nc(NC(=O)CC3(C(F)(F)F)CC3)c(C3CCC3)c2c1 [Example 97, N-(5-cyano-3-cyclobutylpyrazolo[1,5-a]pyridin-2-yl)-2-(1-(trifluoromethyl)cyclopropyl)acetamide]
< 1000		CC(C)(O)c1ccn2nc(NC(=O)C[C@@H]3CC(F)(F)C3(F)F)c(C3CCC3)c2c1 [Example 98, (R)-N-(3-cyclobutyl-5-(2-hydroxypropan-2-yl)pyrazolo[1,5-a]pyridin-2-yl)-2-(2,2,3,3-tetrafluorocyclobutyl) acetamide]

The next lines start with the molecule.

SMILES	EC50 [nM]	Thallium Flux Kv7.2/7.3 Activity
CC(C)(C)CC(=O)Nc1nn2ccc(C#N)cc2c1C1CCC1 [Example 3, N-(5-cyano-3-cyclobutylpyrazolo[1,5-a]pyridin-2-yl)-3,3-dimethylbutanamide]	< 1000	
CC(C)(O)CC(=O)Nc1nn2ccc(C(F)(F)F)cc2c1-c1ccc(F)cc1 [Example 14, N-(3-(4-fluorophenyl)-5-(trifluoromethyl)pyrazolo [1,5-a]pyridin-2-yl)-3-hydroxy-3-methylbutanamide]	< 1000	
CC(C)(C)CC(=O)Nc1nn2ccc(C(C)(C)O)cc2c1C1CCC1 [Example 57, N-(3-cyclobutyl-5-(2-hydroxypropan-2-yl)pyrazolo[1,5-a]pyridin-2-yl)-3,3-dimethylbutanamide]	< 1000	
